Results as given in patent US12371434B2, “MLL1 inhibitors and anti-cancer agents” (NOVARTIS AG, priority 2020, dated 2025).

Tests used:
MV4-11 cells = experiment: MV4-11 6-day cell growth CTG (CellTiter-Glo) assay; format: cell-based; settings: Homo sapiens, 144 h, 6 days
Experimental: MV4-11 6-Day Cell Growth CTG (CellTiter-Glo) Assay
Acute myeloid leukemia cell MV4-11 (ATCC® CRL-9591™) was cultured with RPMI 1640 medium (Thermo Fisher Scientific, cat #11875) supplemented with 10% FBS (Thermo Fisher Scientific, cat #10099141) in humidified incubator at 37° C., 5% CO2. To assess the effect of MLL1 inhibition on cell growth, the compound of the present invention was dissolved in DMSO and serially diluted at 1:3 for 12 points starting from 10 mM then 200 nL for the replicate of each dose per well was dispensed to Viewplate-384 Black (Perkin Elmer). Exponentially growing MV4-11 cells were seeded at the density of 300 cells per well in 40 μL to the plate, so the final compound working concentration starts from 50 μM. After 6 days, 40 μL CellTiter-Glo (Promega, cat #G7573) was added into the cell culture well and luminescence was read with Envision (Perkin Elmer) to determine the viable cells. The percentage inhibition was calculated against the samples treated with DMSO only and the data were used for dose response curve fitting in GraphPad Prism to get the IC50 of representative compound of present invention, which reflects the inhibition of MLL1 activity.

[1] = molecular target: wild type MLL1 five-member complex (MLL1-5C) (Homo sapiens, UniProt Q03164); experiment: MLL1 Flashplate assay; format: biochemical; settings: 2.5 nM MLL1-5C, 0.5 μM 3H-SAM, 1 μM H3K4me0; read-out: MLL1 flash plate
Experimental: MLL1 Flashplate Assay To assess the compound potency in MLL1 Flashplate assay, compounds were serially diluted 3-fold in DMSO to obtain a total of twelve concentrations. Then the test compounds at each concentration (250 nL of each) were transferred by Mosquito into Corning #3675 384-well plate. Solutions (15 μL) of 4.2 nM wild type MLL1 five-member complex (MLL1-5C) in the assay buffer (20 mM Tris-HCl, pH8.0, 0.01% Tween 20, 1 mM DTT, 0.01% BSA) were added to the wells. A 10 μL solution of 2.5 μM of the peptide substrate H3K4me0 (histone H3[1-21]-Biotin) and 1.25 μM ^3H-SAM in the reaction buffer was then added to initiate each reaction. The final components in the reaction solution include 2.5 nM MLL1-5C, 0.5 μM ^3H-SAM, and 1 μM H3K4me0 with varying concentration of the compounds. A positive control consisted of 2.5 nM MLL1-5C, 0.5 μM ^3H-SAM, and 1 μM substrate in the absence of the test compound, and a negative control consisted of 0.5 μM ^3H-SAM, and 1 μM substrate only. Each reaction was incubated at rt for 90 min, then stopped by addition of 5 μL per of quench solution (0.5 mM SAM in assay buffer). 25 μL of each reaction solution was transferred to FlashPlate streptavidin 384-well microplate (PerkinElmer). After at least 1 h incubation at rt, the wells were washed three times with 0.1% Tween-20 in dH2O using the BioTek plate washer. The plates were then read in MicroBeta (PerkinElmer). The radioactive readouts were then normalized based on the values coming from the positive and negative controls to give percent enzyme activities. The data were then fit to a dose response equation using the program Helios to get the IC50 values of the test compounds.

[2] = molecular target: wild type MLL1 four-member complex (MLL1-4C) (Homo sapiens, UniProt Q03164); experiment: MLL1 LC-MS assay; format: biochemical; settings: 30 nM MLL1-4C, 2.5 μM SAM, 10 μM H3K4me0; SAH production by LC-MS/MS; read-out: MLL1 LCMS
Experimental: The compounds of the present disclosure were serially and separately diluted 3-fold in DMSO to obtain a total of eight or twelve concentrations. Then the test compounds at each concentration (120 nL of each) were transferred by Mosquito into white Proxiplate plus 384-well microplate (PerkinElmer). Solutions (6 μL) of 60 nM wild type MLL1 four-member complex (MLL1-4C) and 5 μM SAM in the reaction buffer (20 mM Tris-HCl, pH8.0, 0.01% Tween 20, 1 mM DTT, 10 mM MgCl2, 0.01% BSA) were added to the wells that were then incubated with the test compound for 20 min. A 6 μL solution of 20 μM of the peptide substrate H3K4me0 (histone H3[1-21]-Biotin) in the reaction buffer was added to initiate each reaction. The final components in the reaction solution include 30 nM MLL1-4C, 2.5 μM SAM, and 10 μM H3K4me0 with varying concentration of the compounds. A positive control consisted of 30 nM MLL1-4C, 2.5 μM SAM, and 10 μM substrate in the absence of the test compound, and a negative control consisted of 2.5 μM SAM, and 10 μM substrate only. Each reaction was incubated at rt for 120 min, then stopped by addition of 3 μL per of quench solution (2.5% TFA with 320 nM d4-SAH). The reaction mixture was centrifuged (Eppendorf centrifuge 5810, Rotor A-4-62) for 2 min at 2000 rmp. The SAH production from the enzymatic assays were monitored by LC-MS/MS on an API 4000 triple quadrupole mass spec with TurboIon Spray (Applied Biosystem) coupled with Prominenece UFLC(Shimazu). The level of SAH production were then normalized based on the values coming from the positive and negative controls to give percent enzyme activities. The data were then fit to a dose response equation using the program Helios (Novartis) to get the IC50 values of the test compounds.

H3K4me3 in MV4-11 cells = experiment: MV4-11 H3K4Me3 cellular ELISA assay; format: cell-based; settings: Homo sapiens, 48 hours, H3K4me3 signal normalized to total H3
Experimental: MV4-11H3K4Me3 Cellular ELISA Assay
MV4-11 (ATCC® CRL-9591™) was cultured with RPMI1640 medium (Thermo Fisher Scientific, cat #11875) supplemented with 10% FBS (Thermo Fisher Scientific, cat #10099141) and 50 U/ml Penicillin-Streptomycin (Thermo Fisher Scientific, cat #10378016) in humidified incubator at 37° C., 5% CO2.
200 nL compounds dissolved in DMSO were serially diluted at 1:3 ratio for 12 points starting from 10 mM and dispensed into each wells of cell culture plates (PDL-coated ViewPlate-384 Black, FTC, PerkinElmer, #6007710). 3,750 MV4-11 cells in 40 μL culture medium were seeded into each well and treated with desired concentration for 48 hours. After treatment, wash cells with cold phosphate based buffer (PBS, pH 7.4) and aspirate the remaining PBS buffer. Crude histone lysate was extracted by 40 μL 0.5M HCl for 1 hour in 4° C. following neutralization by adding 32 μL neutralization buffer (0.5M Sodium phosphate dibasic, pH˜12.5, 1.25 mM Dithiothreitol, Promega #V3151, Protease Inhibitor Cocktail, Sigma #8340) for each well. 5 μL and 20 μL of histone lysate was loaded to ELISA plate (384 Well Plates, PE HB, White, 6005620) for detection of total H3 and H3K4me3, respectively. Shake the plates gently in 4° C. for overnight. After histone binding, plates were washed with 80 μL PBS/T (PBS with 0.05% Tween-20) and blocked with 50 μL 3% BSA diluted in PBS/T per well for 1 hour. Incubate wells with primary antibody for 1 hour at room temperature using anti-H3K4me3 (CST #9727) and anti-total H3 (CST #9715) diluted 1:2000 in 3% BSA. Plates were then washed with PBS/T for 3 times and incubated with horseradish peroxidase (HRP) conjugated secondary antibody (CST #7074, 1:5000) for 1 hour at room temperature. The abundance of H3K4me3 and total H3 were measured by ECL substrates chemiluminesce (Pierce, #34080) on a plate reader (PerkinElmer EnVison 2104 Mutilable Reader). Percentage inhibition was calculated against DMSO control after normalization of H3K4me3 signal to H3 signal for individual samples. The data were then fit to a dose response curve using GraphPad Prism for IC50 calculation.

Row | SMILES | IC50 (MV4-11 cells) | IC50 [1] | IC50 [2] | IC50 (H3K4me3 in MV4-11 cells)
1 | CSC[C@H](N)CCCOc1ccc(Cl)c(Cl)c1Cn1cnc2c(N)ncnc21 [Example 52, (R)-9-(6-((4-amino-5-(methylthio)pentyl)oxy)-2,3-dichlorobenzyl)-9H-purin-6-amine] | > 3000 nM | > 100 nM | 50 to 100 nM | –
2 | COCCOC[C@H](N)CCCOc1ccc(Cl)c(Cl)c1Cn1cnc2c(N)ncnc21 [Example 47, (R)-9-(6-((4-amino-5-(2-methoxyethoxy)pentyl)oxy)-2,3-dichlorobenzyl)-9H-purin-6-amine] | > 3000 nM | > 100 nM | > 100 nM | –
3 | COC[C@H](N)CCCOc1ccc(Cl)c(Cl)c1Cn1cnc2c(N)ncnc21 [Example 1, (R)-9-(6-((4-amino-5-methoxypentyl)oxy)-2,3-dichlorobenzyl)-9H-purin-6-amine] | 2000 to 3000 nM | < 60 nM | < 50 nM | > 3000 nM
4 | Nc1ncnc2c1ncn2Cc1c(OCCC[C@@H](N)C(=O)O)ccc(Cl)c1Cl [Example 23, (R)-2-amino-5-(2-((6-amino-9H-purin-9-yl)methyl)-3,4-dichlorophenoxy)pentanoic acid] | 2000 to 3000 nM | < 60 nM | < 50 nM | < 1900 nM
5 | COC[C@H](N)CCCOc1ccc2cc(Br)ccc2c1Cn1cnc2c(N)ncnc21 [Example 20, (R)-9-((2-((4-amino-5-methoxypentyl)oxy)-6-bromonaphthalen-1-yl)methyl)-9H-purin-6-amine] | > 3000 nM | < 60 nM | 50 to 100 nM | > 3000 nM
6 | COCCNC(=O)[C@H](N)CCCOc1ccc(Cl)c(Cl)c1Cn1cnc2c(N)ncnc21 [Example 41, (R)-2-amino-5-(2-((6-amino-9H-purin-9-yl)methyl)-3,4-dichlorophenoxy)-N-(2-methoxyethyl) pentanamide] | < 2000 nM | – | 50 to 100 nM | < 1900 nM
7 | CS(=O)(=O)NC(=O)[C@H](N)CCCOc1ccc(Cl)c(Cl)c1Cn1cnc2c(N)ncnc21 [Example 43, (R)-2-amino-5-(2-((6-amino-9H-purin-9-yl)methyl)-3,4-dichlorophenoxy)-N-(methylsulfonyl)pentanamide] | < 2000 nM | < 60 nM | < 50 nM | < 1900 nM
8 | CCOC(=O)[C@H](N)CCCOc1ccc(Cl)c(Cl)c1Cn1cnc2c(N)ncnc21 [Example 29, Ethyl (R)-2-amino-5-(2-((6-amino-9H-purin-9-yl)methyl)-3,4-dichlorophenoxy)pentanoate] | < 2000 nM | < 60 nM | < 50 nM | < 1900 nM
9 | Nc1ncnc2c1ncn2Cc1c(OCCC[C@@H](N)c2nnco2)ccc(Cl)c1Cl [Example 51, (R)-9-(6-(4-amino-4-(1,3,4-oxadiazol-2-yl)butoxy)-2,3-dichlorobenzyl)-9H-purin-6-amine] | > 3000 nM | 60 to 100 nM | > 100 nM | –
10 | Nc1ncnc2c1ncn2Cc1c(OCCC[C@@H](N)C(=O)NC2CC2)ccc(Cl)c1Cl [Example 42, (R)-2-amino-5-(2-((6-amino-9H-purin-9-yl)methyl)-3,4-dichlorophenoxy)-N-cyclopropylpentanamide] | < 2000 nM | < 60 nM | < 50 nM | < 1900 nM
11 | COC(=O)[C@H](N)CCCOc1ccc(Cl)c(Cl)c1Cc1cnc2c(N)ncnn12 [Example 34, Methyl (R)-2-amino-5-(2-((4-aminoimidazo[2,1-f][1,2,4]triazin-7-yl)methyl)-3,4-dichlorophenoxy)pentanoate] | < 2000 nM | – | 50 to 100 nM | < 1900 nM
12 | Nc1ncnc2c1ncn2Cc1c(OCCC[C@@H](N)CO)ccc(Cl)c1Cl [Example 45, (R)-2-amino-5-(2-((6-amino-9H-purin-9-yl)methyl)-3,4-dichlorophenoxy)pentan-1-ol] | 2000 to 3000 nM | 60 to 100 nM | 50 to 100 nM | –
13 | Cc1nnc([C@H](N)CCCOc2ccc(Cl)c(Cl)c2Cn2cnc3c(N)ncnc32)s1 [Example 50, (R)-9-(6-(4-amino-4-(5-methyl-1,3,4-thiadiazol-2-yl)butoxy)-2,3-dichlorobenzyl)-9H-purin-6-amine] | > 3000 nM | < 60 nM | < 50 nM | > 3000 nM
14 | Nc1ncnc2c1ncn2Cc1c(OCCC[C@@H](N)c2nc[nH]n2)ccc(Cl)c1Cl [Example 48, (R)-9-(6-(4-amino-4-(1H-1,2,4-triazol-3-yl)butoxy)-2,3-dichlorobenzyl)-9H-purin-6-amine] | < 2000 nM | < 60 nM | < 50 nM | < 1900 nM
15 | CN(C)C[C@H](N)CCCOc1ccc(Cl)c(Cl)c1Cn1cnc2c(N)ncnc21 [Example 53, (R)-5-(2-((6-amino-9H-purin-9-yl)methyl)-3,4-dichlorophenoxy)-N^1,N^1-dimethylpentane-1,2-diamine] | > 3000 nM | > 100 nM | > 100 nM | > 3000 nM
